This note sets out measurements from patent publication US20160222131A1, “ATRX AS A COMPANION DIAGNOSTIC FOR CDK4 INHIBITORS” (Memorial Sloan-Kettering Cancer Center, priority 2013, published 2016).

Non-standard residues stand in square brackets, D forms with d. No end group written: not given here. Arg(Me2s) = CN=C(NC)NCCC[C@H](N)C(=O)O; pS = N[C@@H](COP(=O)(O)O)C(=O)O

The subject of assay [1] is responder cell line LS8817. Kind of assay: ATRX foci by immunofluorescence in responder cells treated with PD0332991. In kind it is cell-based. The protocol: (§1) Cells were washed twice with PBS and fixed with 4% paraformaldehyde at room temperature for 20 minutes. Cells were again washed twice with PBS and treated with 0.1% triton X-100 in PBS for five minutes. Cells were again washed twice with PBS and blocked in 5% BSA in PBS for 30 minutes at room temperature. Cells were incubated with anti-ATRX antibody, obtained from Bethyl, Cat No. A301-045A, diluted at 1:2000 in PBS (stock is provided at 1 mg/ml) overnight at 4 degrees Celsius. The following day, cells were washed twice with PBS and incubated with Alexa Fluor-488 anti-rabbit secondary diluted at 1:500 in PBS (stock was provided at 2 mg/ml) for one hour at room temperature. Cells were washed twice with PBS and incubated with 0.1 ug/ml […] for 5 minutes at room temperature. Cells were washed three times with PBS and slides were mounted in Vectashield fluorescence mounting media. Slides were imaged using a Zeiss Axioplan 2 Upright Microscope. […] Immunofluorescence analysis using the Bethyl antibody was performed to determine if ATRX was recruited to foci. Immunofluorescence was performed as described in Example 1. In the responder cell line LS8817, further analysis was performed to determine the average number of foci present in responder cells undergoing senescence in response treatment with PD0332991. […] The distribution of the number of ATRX foci shifted to the right in responder cells treated with PD0332991 as compared to responder cells that were not treated. […] As shown in FIG. 16A-C, the increase in the number of ATRX foci in response to PD0332991 treatment in responder cells can be observed as early as day 2 subsequent to PD0332991 treatment.

Assay [2] concerns non-responder cell line LS8107. Kind of assay: ATRX foci by immunofluorescence in non-responder cells treated with PD0332991. In kind it is cell-based. The protocol:
as §1, with “treatment. To determine whether ATRX foci can be used as a marker for indicating if non-responders underwent senescence in response to treatment with second drug in combination with a CDK inhibitor, non-responder cells, e.g., LS8107, was treated with PD0332991 followed by treatment with shRNA directed to MDM2 2 days post-PD0332991 treatment (FIG. 17).” for “treatment.”

Assay [3] has as its system responder cell line LS8817. The assay is described as follows: Senescence-associated β-galactosidase after PD0332991 in ATRX knockdown cells. The format is cell-based. To be noted: LS8817 infected with shRNA directed to ATRX vs shSCR, PD0332991 for seven days, FIG. 3. How it is done:
To determine if ATRX plays a role in the senescence pathway induced by treatment with a CDK4 inhibitor, the expression of ATRX was genetically manipulated in the responder cell line, LS8817. Knockdown of ATRX (FIG. 2) was performed in LS8817 cells that were treated with PD0332991. The presence of ATRX in scrambled control shRNA (shSCR)-treated cells and the ATRX shRNA-treated cells was detected by the Bethyl antibody. The accumulation of […] associated β-galactosidase (SA-β-gal) shSCR-treated cells and the ATRX shRNA-treated cells was measured (FIG. 3). […] To determine if ATRX was also downstream of MDM2 loss, we subsequently infected the ATRX deficient cells with lentiviruses expressing shRNAs that targeted MDM2. In the responder cell line, LS8817, accumulation of SA-β-gal was still compromised even though the level of MDM2 was reduced (FIG. 4A). […] Thus, a form of ATRX was required for both PD0332991-induced loss of MDM2, and downstream of MDM2 loss to establish a senescent state.

The test system of assay [4] is Bethyl antibody. Kind of assay: Reactivity of ATRX C-terminal peptides with the Bethyl antibody. The conditions noted are these: KLH-coupled peptides, FIG. 11. In kind it is binding. From the text: All peptides were generated by Thermo Fisher Scientific/Pierce Biotechnology and coupled to the carrier KLH. All conjugates were provided at >98% purity as determined by HPLC. Peptide sequences were confirmed by mass spec. Peptides RSK, 2490Ac and 2480Ra reacted with the Bethyl antibody (FIG. 11).

With `CC(=O)c1c(C)c2cnc(Nc3ccc(N4CCNCC4)cn3)nc2n(C2CCCC2)c1=O` [PD0332991], the “number of ATRX foci in responder cells undergoing senescence” value in assay [1] (LS8817, PD0332991 treated vs not treated, FIG. 14) is “significantly more”. Moreover, in assay [1] (LS8817, in response to PD0332991 treatment, FIG. 14), the “number of cells that contained 18 or more ATRX foci” value was “greatly increased”. In assay [1] (responder cells, subsequent to PD0332991 treatment, FIG. 16A-C), the “earliest time at which the increase in ATRX foci is observed” value was determined as 2 days. Also, the “number of ATRX foci” value is on record as “increased” in assay [1] (senescent responder cells, PD0332991 treatment, FIG. 13B); “significant increase” in assay [2] (LS8107, PD0332991 followed by shMDM2 2 days later, vs untreated or PD0332991 alone, FIG. 18); “no increase” in assay [2] (PD0332991-treated non-responder cells, FIG. 13B). Moreover, the “average number of ATRX foci per cell” value in assay [2] (LS8107, PD0332991 treated vs not treated, FIG. 15) is reported as “did not change”. Also, the “number of SA-β-gal positive cells” value in assay [3] is listed as “greatly reduced”.
With “APPMRSKNPGPSQGKSM [amino acids 2475-2492 of ATRX, no modification, coupled to the carrier KLH]”, the “reactivity with the Bethyl antibody” value in assay [4] is “reacted”.
In the case of “APPPMRSKNP [2480Rs] (APPPM[Arg(Me2s)]SKNP) [Peptide 2480Rs, amino acids 2475-2484 of ATRX, symmetrically methylated at arginine 2480]”, in assay [4], the “reactivity with the Bethyl antibody” value is recorded as “did not react”.
Consider “APPPMRSKNP [Peptide 2480Ra, amino acids 2475-2484 of ATRX, asymmetrically methylated at arginine 2480]”, for which the “reactivity with the Bethyl antibody” value in assay [4] was “reacted”.
As for “PPPLQRAPPM [Peptide 2474, amino acids 2469-2479 of ATRX, no modification, coupled to KLH]”, the “reactivity with the Bethyl antibody” value in assay [4] is “did not react”.
In the case of “SKNPGPSQG (SKNPGP[pS]QG) [Peptide 2487P, amino acids 2481-2489 of ATRX, phosphorylated at serine 2487]”, the “reactivity with the Bethyl antibody” value in assay [4] is given as “did not react”.
Regarding “SKNPGPSQGKSM [Peptide 2490Ac, amino acids 2481-2492 of ATRX, acetylated at lysine 2490]”, the “reactivity with the Bethyl antibody” value in assay [4] was “reacted”.
